From ChEMBL document CHEMBL1149341, “Two novel immunosuppressive pregnane glycosides from the roots of Stephanotis mucronata” (Bioorg Med Chem Lett, 2006)

What was measured:
Splenocyte [1] = test: Inhibition of concanavalin A-stimulated mouse splenocyte proliferation by MTT method; format: functional, cell-based
Splenocyte [2] = test: Inhibition of LPS-stimulated mouse splenocyte proliferation by MTT method; format: functional, cell-based

## CO[C@H]1[C@@H](O)[C@H](O[C@H]2[C@@H](OC)C[C@H](O[C@H]3[C@@H](OC)C[C@H](O[C@H]4CC[C@@]5(C)C(=CC[C@]6(O)C5C[C@@H](OC(=O)c5cccnc5)[C@@]5(C)[C@]6(O)CC[C@@]5(O)[C@@H](C)OC(=O)/C=C/c5ccccc5)C4)O[C@@H]3C)O[C@@H]2C)O[C@H](C)[C@H]1O[C@@H]1O[C@H](CO)[C@@H](O)[C@H](O)[C@H]1O (some centres undefined)
Splenocyte [1]
  Activity: Dose-dependent effect
Splenocyte [2]
  Activity: Dose-dependent effect

## CNc1ccccc1C(=O)O[C@H](C)[C@]1(O)CC[C@@]2(O)[C@]1(C)[C@H](OC(C)=O)C[C@@H]1[C@@]3(C)CC[C@H](O[C@H]4C[C@H](OC)[C@H](OC5C[C@H](OC)[C@H](O[C@@H]6O[C@H](C)[C@@H](O[C@@H]7O[C@H](CO)[C@@H](O)[C@H](O)[C@H]7O)[C@@H](OC)[C@H]6O)[C@@H](C)O5)[C@@H](C)O4)C[C@@H]3CC[C@]12O (some centres undefined)
Splenocyte [1]
  Activity: Dose-dependent effect
Splenocyte [2]
  Activity: Dose-dependent effect
